Data published in patent publication US7442717B2, “Substituted 2-aminoimidazoles, process for their preparation, their use as medicament or diagnostic aid” (Sanofi-Aventis Deutschland GmbH, priority 2003, dated 2008).
Structures can show the parent of a compound that is named as a salt.

Assays:
rNHE3 = target: T1, rNHE3 (Rattus norvegicus, UniProt P26433); test: Recovery of intracellular pH (pHi) after acidification, BCECF fluorescence, in fibroblasts (LAP 1 cells); assay type: cell-based; settings: pH recovery in LAP 1 fibroblasts
T1 construct: expressed in transfected cells; host or cells: LAP 1 cells (fibroblasts)
T1 sequence (P26433 29-831): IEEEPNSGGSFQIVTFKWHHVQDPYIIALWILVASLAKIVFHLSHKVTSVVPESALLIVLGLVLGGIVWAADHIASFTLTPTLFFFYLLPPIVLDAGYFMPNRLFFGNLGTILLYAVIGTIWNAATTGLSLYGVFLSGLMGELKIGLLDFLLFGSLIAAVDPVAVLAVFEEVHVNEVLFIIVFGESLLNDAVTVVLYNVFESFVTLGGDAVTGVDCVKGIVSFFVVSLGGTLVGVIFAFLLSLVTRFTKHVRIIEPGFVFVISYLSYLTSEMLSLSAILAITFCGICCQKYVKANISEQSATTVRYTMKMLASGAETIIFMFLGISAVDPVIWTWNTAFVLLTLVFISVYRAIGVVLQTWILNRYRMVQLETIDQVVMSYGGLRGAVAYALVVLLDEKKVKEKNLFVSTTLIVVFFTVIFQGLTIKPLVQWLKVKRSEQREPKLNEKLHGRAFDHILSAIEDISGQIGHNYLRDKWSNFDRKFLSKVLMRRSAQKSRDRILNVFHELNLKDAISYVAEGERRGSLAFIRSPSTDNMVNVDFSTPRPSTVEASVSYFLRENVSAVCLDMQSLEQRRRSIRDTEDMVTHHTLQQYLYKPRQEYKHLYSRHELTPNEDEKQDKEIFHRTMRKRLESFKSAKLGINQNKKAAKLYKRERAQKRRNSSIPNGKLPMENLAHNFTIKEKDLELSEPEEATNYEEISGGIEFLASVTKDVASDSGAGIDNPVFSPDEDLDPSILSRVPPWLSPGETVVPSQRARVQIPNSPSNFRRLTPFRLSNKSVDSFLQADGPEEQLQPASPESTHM
Description: In this test, the recovery in the intracellular pH (pHi) after an acidification was ascertained, which is initiated if the NHE3 is capable of functioning, even under bicarbonate-free conditions. For this purpose, the pHi was determined using the pH-sensitive fluorescent dye BCECF (Calbiochem, the precursor BCECF-AM is employed). The cells (fibroblasts, LAP 1 cells) were initially loaded with BCECF. The BCECF fluorescence was determined in a “Ratio Fluorescence Spectrometer” (Photon Technology International, South Brunswick, N.J., USA) at excitation wavelengths of 505 and 440 nm and an emission wavelength of 535 nm and converted into the pHi using calibration curves. The cells were incubated in NH4Cl buffer (pH 7.4) (NH4Cl buffer: 115 mM NaCl, 20 mM NH4Cl, 5 mM KCl, 1 mM CaCl2, 1 mM MgSO4, 20 mM Hepes, 5 mM glucose, 1 mg/ml BSA; a pH of 7.4 is adjusted with 1 M NaOH) even during the BCECF loading. The intracellular acidification was induced by adding 975 μl of an NH4Cl-free buffer (see below) to 25 μl aliquots of the cells incubated in NH4Cl buffer. The subsequent rate of pH recovery was recorded for three minutes. To calculate the inhibitory potency of the tested substances, the cells were initially investigated in buffers with which a complete or absolutely no pH recovery took place. For complete pH recovery (100%), the cells were incubated in Na^+-containing buffer (133.8 mM NaCl, 4.7 mM KCl, 1.25 mM CaCl2, 1.25 mM MgCl2, 0.97 mM Na2HPO4, 0.23 mM NaH2PO4, 5 mM Hepes, 5 mM glucose, a pH of 7.0 is adjusted with 1 M NaOH). To determine the 0% value, the cells were incubated in an Na^+-free buffer (133.8 mM choline chloride, 4.7 mM KCl, 1.25 mM CaCl2, 1.25 mM MgCl2, 0.97 mM K2HPO4, 0.23 mM KH2PO4, 5 mM Hepes, 5 mM glucose, a pH of 7.0 is adjusted with 1 M KOH). The substances to be tested were made up in the Na^+-containing buffer. The recovery of the intracellular pH at each test concentration of a substance was expressed as a percentage of the maximum recovery. The IC50 value for the particular substance for the individual NHE subtypes was calculated from the pH recovery percentages using the Sigma-Plot program.

NHE3 = NHE3 (Oryctolagus cuniculus, UniProt P26432); settings: literature, M. Donowitz et al. Am. J. Physiol. 276; cited from earlier work
Sequence of NHE3 (P26432 30-832): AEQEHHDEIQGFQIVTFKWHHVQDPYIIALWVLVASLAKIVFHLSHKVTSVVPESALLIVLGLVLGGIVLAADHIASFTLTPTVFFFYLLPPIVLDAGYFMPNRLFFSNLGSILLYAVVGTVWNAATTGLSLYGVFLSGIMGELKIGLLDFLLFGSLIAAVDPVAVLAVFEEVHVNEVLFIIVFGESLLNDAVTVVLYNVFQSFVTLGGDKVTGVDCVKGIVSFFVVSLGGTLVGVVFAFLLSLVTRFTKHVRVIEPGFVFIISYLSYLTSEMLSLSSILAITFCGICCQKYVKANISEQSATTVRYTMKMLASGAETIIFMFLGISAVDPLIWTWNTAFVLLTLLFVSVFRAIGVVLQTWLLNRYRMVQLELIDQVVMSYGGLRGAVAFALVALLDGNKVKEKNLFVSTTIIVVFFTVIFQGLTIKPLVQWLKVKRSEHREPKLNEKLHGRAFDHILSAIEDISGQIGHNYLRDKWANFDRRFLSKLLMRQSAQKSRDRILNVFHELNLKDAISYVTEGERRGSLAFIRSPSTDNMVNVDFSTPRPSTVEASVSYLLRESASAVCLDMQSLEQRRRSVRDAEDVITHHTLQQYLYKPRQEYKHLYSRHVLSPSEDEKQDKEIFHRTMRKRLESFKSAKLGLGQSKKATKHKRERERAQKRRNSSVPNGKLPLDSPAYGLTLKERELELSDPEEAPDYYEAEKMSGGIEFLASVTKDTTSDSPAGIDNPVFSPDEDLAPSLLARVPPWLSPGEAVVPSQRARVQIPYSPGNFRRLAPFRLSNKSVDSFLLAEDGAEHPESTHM

adrenergic α2 receptor = settings: literature, Ernsberger et al Eur. J. Pharmacol. 134, 1, 1987; cited from earlier work
imidazoline I1 receptor = settings: literature, Ernsberger et al Eur. J. Pharmacol. 134, 1, 1987; cited from earlier work
NHE2 = NHE2 (Rattus norvegicus, UniProt P48763); settings: read-out: IC50 for NHE2; literature value, J. Orlowski et al; cited from earlier work
Sequence of NHE2 (P48763 whole entry): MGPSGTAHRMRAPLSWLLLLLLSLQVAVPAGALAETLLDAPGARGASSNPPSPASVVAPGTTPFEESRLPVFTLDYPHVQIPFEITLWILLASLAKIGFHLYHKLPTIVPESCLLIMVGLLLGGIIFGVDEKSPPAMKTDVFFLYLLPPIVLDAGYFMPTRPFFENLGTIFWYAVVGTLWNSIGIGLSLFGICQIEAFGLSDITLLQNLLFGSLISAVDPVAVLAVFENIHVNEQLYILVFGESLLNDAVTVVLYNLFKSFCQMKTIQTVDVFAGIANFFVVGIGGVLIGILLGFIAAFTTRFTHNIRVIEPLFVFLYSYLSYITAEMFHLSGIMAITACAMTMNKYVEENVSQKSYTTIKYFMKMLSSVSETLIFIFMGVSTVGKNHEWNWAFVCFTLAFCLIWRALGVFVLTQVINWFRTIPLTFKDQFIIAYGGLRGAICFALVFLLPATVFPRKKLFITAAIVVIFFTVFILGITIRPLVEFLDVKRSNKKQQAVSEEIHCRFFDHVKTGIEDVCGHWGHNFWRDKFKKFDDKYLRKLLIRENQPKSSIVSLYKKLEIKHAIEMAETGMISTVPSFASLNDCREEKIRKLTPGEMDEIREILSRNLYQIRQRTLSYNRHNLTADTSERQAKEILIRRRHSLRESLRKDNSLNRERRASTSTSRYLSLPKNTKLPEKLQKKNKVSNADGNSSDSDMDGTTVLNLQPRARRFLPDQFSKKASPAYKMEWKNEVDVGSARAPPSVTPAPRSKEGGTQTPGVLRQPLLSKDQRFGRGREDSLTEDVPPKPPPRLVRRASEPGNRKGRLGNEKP

Which IC50 (rNHE3) does the source give for `Cc1c[nH]c(Nc2c(Cl)cccc2Cl)n1` [Example 2, (2,6-Dichlorophenyl)(4-methyl-1H-imidazol-2-yl)amine hydrochloride] here?
The IC50 was 1.7 µM.

Which IC50 (rNHE3) does the source give for `Cc1nc(Nc2c(Cl)cccc2Cl)[nH]c1C` [Example 3, (2,6-Dichlorophenyl)(4,5-dimethyl-1H-imidazol-2-yl)amine hydrochloride] here?
The IC50 was 0.84 µM.

For `Clc1cccc(Cl)c1Nc1nc2c([nH]1)CCCC2` [Example 5, (2,6-Dichlorophenyl)(4,5,6,7-tetrahydro-1H-benzoimidazol-2-yl)amine hydrochloride], which IC50 (rNHE3) is on record?
Its IC50 is 0.24 µM.

For `CC(C)[C@@H](CC[C@@H](C)[C@H]1CC[C@H]2[C@@H]3[C@H](O)C[C@H]4C[C@@H](NCCCNCCCCN)CC[C@]4(C)[C@H]3CC[C@]12C)OS(=O)(=O)O` [Squalamine], which “time to maximum strength of NHE3-inhibiting effect” value (NHE3) is on record?
The value was “only after one hour”.

With `CN(c1nc2c([nH]1)CCCC2)c1c(Cl)cccc1Cl` [Example 7, hydrochloride] as the compound, how does the IC50 (rNHE3) read?
The IC50 was 0.28 µM.

With `N#Cc1nc(Nc2c(Cl)cccc2Cl)[nH]c1C#N` [Example 6, 2-(2,6-Dichlorophenylamino)-1H-imidazole-4,5-dicarbonitrile] as the compound, how does the IC50 (rNHE3) read?
The IC50 was 98 µM.

With `Clc1cccc(Cl)c1N=C1NCCN1` [Clonidine] as the compound, how does the “affinity for the adrenergic α2 receptor” value (adrenergic α2 receptor) read?
The value was “high affinity”.

And the “affinity for the imidazoline I1 receptor” value (imidazoline I1 receptor)?
The value was “high affinity”.

And the IC50 (NHE2)?
Its IC50 is 42000 nM.

For `Clc1cccc(Cl)c1Nc1ncc[nH]1` [Example 1, (2,6-Dichlorophenyl)(1H-imidazol-2-yl)amine hydrochloride], which IC50 (rNHE3) is on record?
The IC50 was 7.7 µM.
